Laboratory results: patent EP0661271B1, “AZEPINE DERIVATIVES, PRODUCTION THEREOF, AND USE THEREOF AS SIGMA-RECEPTOR LIGANDS” (Asahi Kasei Kogyo Kabushiki Kaisha, priority 1992, dated 1994)

Columns and labels:
[1] = biological target: σ-receptor; experiment: Binding activity for σ-receptor, [3H]DTG displacement in rat brain membrane preparation; design: species or system Sprague-Dowley rat; conditions: for Ki: rat whole brain (except cerebella) membrane, [3H]DTG 3 nM, 25°C 60 minutes, compounds tested as hydrochloride, read-out: Sigma [^3H] DTG Ki
[2] = tested on: apomorphine induced climbing; experiment: Suppressive activity on apomorphine induced climbing in mice; format: in vivo; conditions: 30 minutes before apomorphine 2 mg/kg s.c., ICR mice; for Suppression rate (mg/kg, p.o): apomorphine single administered group = 100 %
Experimental: Administering dopamine agonist, apomorphine in mouse resulted various abnormal movings, and especially, a climbing the cage has been known to be correlated with human schizophrenia.
Compounds of the present invention were administered orally or intraperitoneally in ICR mice, male (Charles River Corp.), and after 30 minutes apomorphine 2 mg/kg was administered subcutaneously. Climbing behaviors of 3 minutes after 20-23 minutes of apomorphine administration were observed. Climbing behavior was observed by entering the mice in stainless steel made wire netting cage and measuring a time remaining above the upper part of half part of the cage at observing. A climbing time of apomorphine single administered group is set as 100 % and shortened time by administering the drug is shown in suppression rate.

Ki [1] [nM]	Compound	also measured
2.22	CC1(C)C2CC[C@@]1(C)CN(CCc1cccc3ccccc13)C2 [Example 45, (1R)-3-[2-(1-naphthyl)ethyl]-1,8,8-trimethyl-3-azabicyclo [3.2.1] octane]	–
2.23	CC1CCC(CCN2CC3CC[C@](C)(C2)C3(C)C)CC1 (stereo partly drawn) [Example 18, (1S)-3-[2-(4-methylcyclohexyl)ethyl]-1,8,8-trimethyl-3-azabicyclo [3.2.1] octane]	–
8.57	CC1(C)C2CC[C@@]1(C)CN(CCc1ccc3ccccc3c1)C2 [Example 46, (1R)-3-[2-(2-naphthyl)ethyl]-1,8,8-trimethyl-3-azabicyclo [3.2.1] octane]	Suppression (mg/kg, i.p.) ([2]; 10 mg/kg i.p.): 45 % (10)
0.88	CC1(C)C2CC[C@]1(C)CN(CCC1C3CCCC1CCC3)C2 (stereo partly drawn) [Example 21, (1S)-3-[2-(bicyclo [3.3.1]nonan-9-yl)-1-ethyl]-1,8,8-trimethyl-3-azabicyclo [3.2.1] octane]	Suppression rate (mg/kg, p.o) ([2]; 30 mg/kg p.o.): 54 % (30)
4.16	CC1(C)[C@H]2CC[C@]1(C)CN(CC13CC4CC(CC1C4)C3)C2 [Example 20, (1S)-3-(3-noradamantylmethyl)-1,8,8-trimethyl-3-azabicyclo[3.2.1] octane]	–
28.3	CC1(C)C2CC[C@]1(C)CN(CCc1ccc3ccccc3c1)C2 [Example 50, (1S)-3-[2-(2-naphthyl)ethyl]-1,8,8-trimethyl-3-azabicyclo [3.2.1] octane]	Suppression (mg/kg, i.p.) ([2]; 1 mg/kg i.p.): 50 % (1)
9	CC1(C)[C@H]2CC[C@]1(C)CN(CCc1cccc3ccccc13)C2 [Example 49, (1S)-3-[2-(1-naphtyl)ethyl]-1,8,8-trimethyl-3-azabicyclo-[3.2.1] octane]	–
0.87	CC12CC3CC(C1)CC(CCN1CC4CC[C@](C)(C1)C4(C)C)(C3)C2 [Example 19, (1S)-3-[2-(3-methyl-1-adamantyl)ethyl]-1,8,8-trimethyl-3-azabicyclo [3.2.1] octane]	–
0.67	COC12CC3CC(C1)C(CCN1CC4CC[C@](C)(C1)C4(C)C)C(C3)C2 (stereo partly drawn) [Example 24, (1S)-3-[2-(5-methoxy-2-adamantyl)ethyl]-1,8,8-trimethyl-3-azabicyclo [3.2.1] octane]	Suppression rate (mg/kg, p.o) ([2]; 10 mg/kg p.o.): 78 % (10)
0.44	CC1(C)C2CC[C@]1(C)CN(CCC1C3CC4CC1CC(O)(C4)C3)C2 (stereo partly drawn) [Example 23, (1S)-3-[2-(5-hydroxy-2-adamantyl)ethyl]-1,8,8-trimethyl-3-azabicyclo [3.2.1] octane]	Suppression rate (mg/kg, p.o) ([2]; 10 mg/kg p.o.): 69 % (10)
0.58	CC1(C)C2CC[C@]1(C)CN(CCC1C3CC4CC1CC(Cl)(C4)C3)C2 (stereo partly drawn) [Example 25, (1S)-3-[2-(5-chloro-2-adamantyl)ethyl]-1,8,8-trimethyl-3-azabicyclo [3.2.1] octane]	Suppression rate (mg/kg, p.o) ([2]; 30 mg/kg p.o.): 43 % (30)
1.6	CC1(C)C2CC[C@]1(C)CN(CCC1C3CC4CC(C3)C(O)C1C4)C2 (stereo partly drawn) [Example 27, (1S)-3-[2-(4-hydroxy-2-adamantyl)ethyl]-1,8,8-trimethyl-3-azabicyclo [3.2.1] octane]	–

The next lines start with the compound.

Compound	Ki [1] [nM]	also measured
CC1(C)C2CC[C@]1(C)CN(CC1CCCCC1)C2 [Example 11, (1S)-3-cyclohexylmethyl-1,8,8-trimethyl-3-azabicyclo[3.2.1] octane]	3.63	–
(1S)-3-[2-(1-norbornyl)ethyl]-1,8,8-trimethyl-3-azabicyclo [3,2,1] octane [Example 2]	0.39	–
Cc1ccccc1NC(=N)Nc1ccccc1C [DTG, 1,3-di(2-tolyl) guanidine, reference compound]	–	Kd ([1]; radioligand constant used to calculate Ki, read-out: Kd, affinity of radioactive ligand for receptor): 10.6 nM
CC1(C)C2CC[C@]1(C)CN(CCc1cccs1)C2 [Example 55, (1S)-3-[2-(2-thienyl)ethyl]-1,8,8-trimethyl-3-azabicyclo [3.2.1] octane]	7.04	–
CC1(C)C2CC[C@]1(C)CN(CCC1CCCC1)C2 [Example 3, (1S)-3-(2-cyclopentylethyl)-1,8,8-trimethyl-3-azabicyclo[3.2.1] octane]	0.53	–
CC1(C)C2CC[C@@]1(C)CN(CCc1ccccn1)C2 [Example 47, (1R)-3-[2-(2-pyridyl)ethyl]-1,8,8-trimethyl-3-azabicyclo [3.2.1] octane]	16.1	–
CC1(C)C2CC[C@]1(C)CN(CCCC1CCCCC1)C2 [Example 10, (1S)-3-(3-cyclohexylpropyl)-1,8,8-trimethyl-3-azabicyclo[3.2.1] octane]	0.92	–
CC1(C)C2CC[C@]1(C)CN(CCC1C3CC4CC(C3)CC1C4)C2 (stereo partly drawn) [Example 15, (1S)-3-[2-(2-adamantyl)ethyl]-1,8,8-trimethyl-3-azabicyclo[3.2.1] octane]	0.32	Suppression rate (mg/kg, p.o) ([2]; 10 mg/kg p.o.): 78 % (10)
CC1(C)C2CC[C@]1(C)CN(CCC1CCCCCCC1)C2 [Example 8, (1S)-3-(2-cyclooctylethyl)-1,8,8-trimethyl-3-azabicyclo[3,2,1] octane]	0.5	–
CC1(C)C2CC[C@]1(C)CN(CCc1cccnc1)C2 [Example 52, (1S)-3-[2-(3-pyridyl)ethyl]-1,8,8-trimethyl-3-azabicyclo [3.2.1] octane]	79.5	–
CC1(C)C2CC[C@]1(C)CN(CCC1CCCCC1)C2 [Example 4, (1S)-3-(2-cyclohexylethyl)-1,8,8-trimethyl-3-azabicyclo[3.2.1] octane]	0.28	–
CC1(C)C2CC[C@@]1(C)CN(CC1CCCCC1)C2 [Example 12, (1R)-3-cyclohexylmethyl-1,8,8-trimethyl-3-azabicyclo[3.2.1] octane]	2.53	–
CC1(C)C2CC[C@@]1(C)CN(CCC13CC4CC(CC(C4)C1)C3)C2 [Example 14, (1R)-3-[2-(1-adamantyl)ethyl]-1,8,8-trimethyl-3-azabicyclo[3.2.1] octane]	0.32	–
CC1(C)C2CC[C@]1(C)CN(CCC1CCCCCC1)C2 [Example 7, (1S)-3-(2-cycloheptylethyl)-1,8,8-trimethyl-3-azabicyclo[3.2.1] octane]	0.57	–
CC1(C)C2CC[C@]1(C)CN(CCc1ccccn1)C2 [Example 51, (1S)-3-[2-(2-pyridyl)ethyl]-1,8,8-trimethyl-3-azabicyclo [3.2.1] octane]	31.8	–
CC1(C)C2CC[C@]1(C)CN(CCC13CC4CC(CC(C4)C1)C3)C2 [Example 1, (1S)-3-[2-(1-adamantyl)ethyl]-1,8,8-trimethyl-3-azabicyclo [3.2.1] octane]	0.26	Suppression rate (mg/kg, p.o) ([2]; 30 mg/kg p.o.): 37 % (30)
CC1(C)C2CC[C@]1(C)CN(CCCCC1CCCCC1)C2 [Example 9, (1S)-3-(4-cyclohexyl-1-butyl)-1,8,8-trimethyl-3-azabicyclo[3.2.1] octane]	3.72	–
CC1(C)C2CC[C@@]1(C)CN(CCC1CCCCC1)C2 [Example 6, (1R)-3-(2-cyclohexylethyl)-1,8,8-trimethyl-3-azabicyclo[3.2.1] octane]	0.16	–
CN(C)CCCN1c2ccccc2Sc2ccc(Cl)cc21 [Chlorpromazine, reference compound]	–	Suppression (mg/kg, i.p.) ([2]; 1 mg/kg i.p.): 40 % (1)
CC1(C)[C@@H]2CC[C@@]1(C)CN(CCc1ccncc1)C2 [Example 48, (1R)-3-[2-(4-pyridyl) ] ethyl-1,8,8-trimethyl-3-azabicyclo [3.2.1] octane]	15.1	–
CC1(C)C2CC[C@]1(C)CN(CCc1ccncc1)C2 [Example 53, (1S)-3-[2-(4-pyridyl)ethyl]-1,8,8-trimethyl-3-azabicyclo [3.2.1] octane]	21.5	–
CC1(C)C2CC[C@]1(C)CN(CCC1C3CC4CC(C3)C(c3ccccc3)C1C4)C2 (stereo partly drawn) [Example 28, (1S)-3-[2-(4-phenyl-2-adamantyl)ethyl]-1,8,8-trimethyl-3-azabicyclo [3.2.1] octane]	–	Suppression rate (mg/kg, p.o) ([2]; 30 mg/kg p.o.): 74 % (30)
CC1(C)C2CC[C@@]1(C)CN(CCC1C3CC4CC(C3)CC1C4)C2 (stereo partly drawn) [Example 16, (1R)-3-[2-(2-adamantyl)ethyl]-1,8,8-trimethyl-3-azabicyclo [3.2.1] octane]	0.41	Suppression rate (mg/kg, p.o) ([2]; 30 mg/kg p.o.): 79 % (30)
CC1(C)C2CC[C@]1(C)CN(C1CCCCC1)C2 [Example 13, (1S)-3-cyclohexyl-1,8,8-trimethyl-3-azabicyclo[3.2.1] octane]	6.37	–
